Test results published in the supplement of paper PMC10307832.

Legend:
Experiment in all cases: relative viability (nuclei count vs DMSO), 5 days (fraction); higher = more cells survive
GSK-J4 + Pemetrexed = compound: CCOC(=O)CCNc1cc(N2CCc3ccccc3CC2)nc(-c2ccccn2)n1 [GSK-J4] + Nc1nc2[nH]cc(CCc3ccc(C(=O)N[C@@H](CCC(=O)O)C(=O)O)cc3)c2c(=O)[nH]1 [Pemetrexed] (partner 0.2 µM)
How it was run: (§1)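 Five library-drug doses in √10 steps were combined with a fixed anchor-drug dose, or a single drug was given alone, by pin tool to lung cancer cell lines in 1536-well plates the day after seeding. Nuclei were stained and counted after 5 days. Relative viability is the nuclei count in treated wells over that in vehicle wells, taken as the median of duplicate plates.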

GSK-J4 + Palbociclib = compound: CCOC(=O)CCNc1cc(N2CCc3ccccc3CC2)nc(-c2ccccn2)n1 [GSK-J4] + CC(=O)c1c(C)c2cnc(Nc3ccc(N4CCNCC4)cn3)nc2n(C2CCCC2)c1=O [Palbociclib] (partner 0.5 µM)
How it was run: as §1

AZ3146 + Decitabine = compound: CN1CCC(CC1)OC2=CC(=C(C=C2)NC3=NC=C4C(=N3)N(C(=O)N4C)C5CCCC5)OC [AZ3146] + Nc1ncn([C@H]2C[C@H](O)[C@@H](CO)O2)c(=O)n1 [Decitabine] (partner 2 µM)
How it was run: as §1

AZ3146 + Alpelisib = compound: CN1CCC(CC1)OC2=CC(=C(C=C2)NC3=NC=C4C(=N3)N(C(=O)N4C)C5CCCC5)OC [AZ3146] + Cc1nc(NC(=O)N2CCC[C@H]2C(N)=O)sc1-c1ccnc(C(C)(C)C(F)(F)F)c1 [Alpelisib] (partner 2 µM)
How it was run: as §1

Row | Cell Line | relative viability (GSK-J4 + Pemetrexed; first compound 0.5 µM) | relative viability (GSK-J4 + Pemetrexed; first compound 1.581 µM) | relative viability (GSK-J4 + Pemetrexed; first compound 5 µM) | relative viability (GSK-J4 + Pemetrexed; first compound 15.81 µM) | relative viability (GSK-J4 + Pemetrexed; first compound 50 µM) | relative viability (GSK-J4 + Palbociclib; first compound 0.5 µM) | relative viability (GSK-J4 + Palbociclib; first compound 1.581 µM) | relative viability (GSK-J4 + Palbociclib; first compound 5 µM) | relative viability (GSK-J4 + Palbociclib; first compound 15.81 µM) | relative viability (GSK-J4 + Palbociclib; first compound 50 µM) | relative viability (AZ3146 + Decitabine; first compound 0.08 µM) | relative viability (AZ3146 + Decitabine; first compound 0.8 µM) | relative viability (AZ3146 + Decitabine; first compound 2.53 µM) | relative viability (AZ3146 + Decitabine; first compound 8 µM) | relative viability (AZ3146 + Alpelisib; first compound 0.08 µM) | relative viability (AZ3146 + Alpelisib; first compound 0.253 µM) | relative viability (AZ3146 + Alpelisib; first compound 0.8 µM) | relative viability (AZ3146 + Alpelisib; first compound 2.53 µM) | relative viability (AZ3146 + Alpelisib; first compound 8 µM) | relative viability (AZ3146 + Decitabine; first compound 0.253 µM)
1 | PC-3 [JPC-3] | 1.14 | 0.848 | 1.03 | 0.938 | 0.944 | 0.499 | 0.511 | 0.512 | 0.497 | 0.514 | 0.768 | 0.806 | 0.81 | 0.85 | 0.914 | 1.01 | 1.02 | 1.08 | 1.07 | –
2 | NCI-H1915 | 0.41 | 0.518 | – | 0.473 | 0.446 | 0.533 | 0.514 | – | 0.481 | 0.514 | 0.267 | 0.266 | 0.251 | 0.264 | 0.978 | 1 | 1 | 1.06 | 1.04 | 0.27
3 | HOP-62 | 0.316 | 0.3 | 0.324 | 0.329 | 0.364 | 0.469 | 0.455 | 0.44 | 0.465 | 0.473 | 0.22 | 0.207 | 0.248 | 0.203 | 0.896 | 0.96 | 0.796 | 1.07 | 0.832 | 0.195
4 | LCLC-103H | 0.483 | 0.374 | 0.378 | 0.42 | 0.509 | 0.447 | 0.36 | 0.455 | 0.449 | 0.49 | 0.675 | 0.742 | 0.741 | 0.729 | 0.985 | 0.886 | 0.859 | 1.03 | 0.99 | 0.732
5 | NCI-H460 | 0.0749 | – | 0.0554 | 0.0643 | 0.0656 | 0.175 | – | 0.167 | 0.137 | 0.149 | 0.38 | 0.445 | 0.467 | 0.178 | 0.375 | 0.466 | 0.478 | 0.573 | 0.254 | 0.475
6 | NCI-H441 | 0.26 | 0.226 | 0.303 | 0.249 | 0.284 | 0.235 | 0.202 | 0.241 | 0.221 | 0.161 | 0.203 | 0.259 | 0.254 | 0.237 | 0.58 | 0.719 | 0.675 | 0.787 | 0.647 | 0.284
7 | SK-LU-1 | 0.931 | 0.877 | 0.85 | 0.876 | 0.717 | 0.362 | 0.421 | 0.346 | 0.336 | 0.295 | 0.558 | 0.552 | 0.647 | 0.692 | 0.892 | 1.05 | 1.15 | 1.23 | 0.571 | 0.684
8 | Calu-6 | – | – | – | – | – | – | – | – | – | – | – | – | – | – | 1.01 | 1.01 | 1.04 | 1.03 | 0.787 | –
9 | NCI-H2228 | 0.335 | 0.328 | 0.342 | 0.36 | 0.364 | 0.672 | 0.765 | 0.817 | 0.784 | 0.722 | – | – | – | – | 0.694 | 0.812 | 0.679 | 0.705 | 0.603 | –
10 | NCI-H727 | – | – | – | – | – | 0.648 | 0.683 | 0.696 | 0.593 | 0.528 | 0.806 | 0.714 | 0.766 | 0.783 | 0.506 | 0.457 | 0.48 | 0.612 | 0.333 | 0.913
11 | EBC-1 | – | – | – | – | – | – | – | – | – | – | – | – | – | – | 0.927 | 0.828 | 0.731 | 0.882 | 0.711 | –
12 | NCI-H522 | 0.983 | 0.823 | – | 0.608 | 1.1 | 1.22 | 0.953 | – | 0.976 | 0.622 | 0.732 | 0.683 | 0.616 | 0.714 | – | – | – | – | – | 0.589
13 | NCI-H1648 | 0.618 | – | 1.02 | – | 0.873 | 0.293 | – | 0.358 | – | 0.3 | – | 0.514 | 0.562 | 0.429 | – | – | – | – | – | –
14 | NCI-H1650 | 0.439 | 0.303 | 0.392 | 0.36 | 0.331 | 0.34 | 0.287 | 0.353 | 0.371 | 0.283 | 0.377 | 0.366 | 0.44 | 0.367 | – | – | – | – | – | 0.44
15 | NCI-H2342 | 0.737 | 0.79 | 0.762 | 0.84 | 0.824 | 0.646 | 0.48 | 0.596 | 0.507 | 0.678 | 0.653 | 0.756 | 0.683 | 0.714 | – | – | – | – | – | 0.681
16 | NCI-H1299 | – | – | – | – | – | – | – | – | – | – | – | – | – | – | 1 | 1.01 | 1.02 | 1.07 | 1.08 | –
17 | SW 900 | 0.478 | 0.478 | 0.475 | 0.442 | 0.526 | 0.575 | 0.496 | 0.546 | 0.517 | 0.436 | 0.389 | 0.442 | 0.451 | 0.558 | – | – | – | – | – | –
18 | IA-LM | – | – | – | – | – | – | – | – | – | – | – | – | – | – | 0.638 | 0.627 | 0.864 | 0.714 | 0.763 | –
19 | CAL-12T | 1.2 | 1.15 | 1.4 | 1.27 | 0.946 | 0.46 | 0.342 | 0.442 | 0.482 | 0.493 | – | – | – | – | 1.21 | 1.31 | 1.36 | 1.31 | 0.765 | –
20 | A549 | – | – | – | – | – | – | – | – | – | – | 0.318 | 0.332 | 0.316 | 0.205 | 0.716 | 0.794 | 0.718 | 0.732 | 0.308 | 0.284
21 | NCI-H596 | 0.519 | 0.485 | 0.473 | 0.465 | 0.549 | – | – | – | – | – | 0.91 | 1.2 | 1.3 | 1.03 | 0.482 | 0.484 | 0.489 | 0.487 | 0.428 | 0.92
22 | ABC-1 | – | – | – | – | – | 0.599 | 0.589 | 0.605 | 0.691 | 0.432 | 1.02 | 1.33 | 1.05 | 1.09 | 0.968 | 0.981 | 1.23 | 1 | 1.09 | 1.04
